Key:
[1] = system: (+)-HA966-induced enhancement of activity; experiment: (+)-HA966-induced enhancement of activity in mouse; format: in vivo, male ICR mouse; conditions: orally given at 10 mg/kg; below 50% judged to have the effect
Description: Compound 1: • 3-(biphenyl-4-yl)-4-(2-methoxyphenyl)-5-methyl-4H-1,2,4-triazole (Japanese Patent unexamined uplication No. 2000-63363; Example 33) Compound 2: • 3-(biphenyl-4-yl)-5-(furan-2-yl)-4-phenyl-4H-1,2,4-triazole (LTPBP42 CD-ROM catalog 1996 of LaboTest Co. (Freiberg, Germany)) Compound 3: • 3-(biphenyl-4-yl)-5-ethyl-4-(2-methoxyphenyl)-4H-1,2,4-triazole (Japanese Patent unexamined publication No. 2000-63363; Example 23) 2. Experimental Method of (+)-HA966—Induced Enhancement of Activity in Mouse
The method reported previously (J. Neural Transm., 97: 175–185, 1994) was used for carrying out the experiment with modification. • Animal: male ICR mouse (Nippon SLC; age 5 to 7 weeks) • Chemical drug: reserpine (Apoplon Injection of 1 mg/ml; manufactured by Daiichi Pharmaceuticals Co., Ltd.), (+)-HA966 (Proc. Nat. Acad. Sci. U.S.A., 87, 347–351, 1990), α-methyl-para-tyrosine methyl ester (Sigma,Inc.). • Experimental apparatus: Supermex (Muromachi Machine) Experimental Method • (1) Pharmaceutical drug-treated groups were defined as follows. […] The effect was determined as follows. […] It was calculated by following formula. […]

[2] = system: ECS-induced learning disability; experiment: Electric convulsion shock (ECS)-induced learning disability (mouse passive avoidance test); format: in vivo, male ddY mouse; conditions: dosed intraperitoneally; step-through latency, p<0.05
Description: 4. Electric Convulsion Shock (ECS)—Induced Learning Disability (Mouse Passive Avoidance Test)
With reference to the previous report (Eur J Pharmacology, 321; 273–278, 1997), assessment was done as follows. • Animal: male ddY mouse (Nippon SLC; age 5 weeks at training) was used. 16 animals were used per one group. <Experimental Procedures> Preparation of Chemical Agents A test compound for oral administration was suspended in aqueous 0.5% methyl cellulose solution, and for intraperitoneal administration was suspended in solution dissolved 0.5% of methyl cellulose solution in saline The dose administered was 10 ml per 1 kg·body weight. As a placebo of the test compound, 10 ml of aqueous 0.5% methyl cellulose solution for oral administration and 10 ml of 0.5% methyl cellulose solution in saline for intraperitoneal administration (herein referred to as vehicle) was administrated. […] Test (24 Hours after the Training) • (1) The animals were left in the experimental room for one hour or longer. • (2) After the mice were placed in the bright room and left for 30 seconds, the guillotine door was opened. • (3) The time (step-through latency) required for the mice to cross the sensor of the dark room from the opening of the guillotine door was counted. […] A significance was determined at p<0.05.

SMILES: CC(C)c1nnc(-c2ccc(-c3ccccc3)cc2)n1-c1ccccc1F [Production Example 1, 3-Biphenyl-4-yl-4-(2-fluorophenyl)-5-isopropyl-4H-1,2,4-triazole]
- normalized activity ((+)-HA966-induced enhancement = 100%) [1]: 43%
- minimum effective dose [2]: 10 mg/kg
